Experimental data from PubChem BioAssay (NCI).
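A five-concentration, 48-hour dose response in 96-well plates underlies each endpoint, interpolated linearly between surrounding concentrations. Definition used: TGI = concentration required for complete inhibition of growth.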

Assays:
Assay in all cases: DTP human tumour cell line panel, 48 h
786-0 renal = system: 786-0 renal
A498 renal = system: A498 renal
A549 NSCLC = system: A549 NSCLC
ACHN renal = system: ACHN renal
BT-549 breast = system: BT-549 breast
CAKI-1 renal = system: CAKI-1 renal
CCRF-CEM leukemia = system: CCRF-CEM leukemia
COLO 205 colon = system: COLO 205 colon
DU-145 prostate = system: DU-145 prostate
EKVX NSCLC = system: EKVX NSCLC
HCC-2998 colon = system: HCC-2998 colon
HCT-116 colon = system: HCT-116 colon
HCT-15 colon = system: HCT-15 colon
HL-60(TB) leukemia = system: HL-60(TB) leukemia
HOP-92 NSCLC = system: HOP-92 NSCLC
HS 578T breast = system: HS 578T breast
HT29 colon = system: HT29 colon
IGROV1 ovarian = system: IGROV1 ovarian
K-562 leukemia = system: K-562 leukemia
KM12 colon = system: KM12 colon
LOX IMVI melanoma = system: LOX IMVI melanoma
M14 melanoma = system: M14 melanoma
MALME-3M melanoma = system: MALME-3M melanoma
MCF7 breast = system: MCF7 breast
MDA-MB-231 breast = system: MDA-MB-231 breast
MDA-MB-435 = system: MDA-MB-435
MDA-N = system: MDA-N
MOLT-4 leukemia = system: MOLT-4 leukemia
NCI-H226 lung = system: NCI-H226 lung
NCI-H23 lung = system: NCI-H23 lung
NCI-H460 lung = system: NCI-H460 lung
NCI-H522 lung = system: NCI-H522 lung
NCI/ADR-RES ovarian = system: NCI/ADR-RES ovarian
OVCAR-3 ovarian = system: OVCAR-3 ovarian
OVCAR-4 ovarian = system: OVCAR-4 ovarian
OVCAR-5 ovarian = system: OVCAR-5 ovarian
OVCAR-8 ovarian = system: OVCAR-8 ovarian
PC-3 prostate = system: PC-3 prostate
RXF 393 renal = system: RXF 393 renal
SF-268 CNS = system: SF-268 CNS
SF-295 CNS = system: SF-295 CNS
SF-539 CNS = system: SF-539 CNS
SK-MEL-2 melanoma = system: SK-MEL-2 melanoma
SK-MEL-28 melanoma = system: SK-MEL-28 melanoma
SK-MEL-5 melanoma = system: SK-MEL-5 melanoma
SK-OV-3 ovarian = system: SK-OV-3 ovarian
SN12C renal = system: SN12C renal
SNB-19 CNS = system: SNB-19 CNS
SW-620 colon = system: SW-620 colon
T-47D breast = system: T-47D breast
TK-10 renal = system: TK-10 renal
U251 CNS = system: U251 CNS
UACC-257 melanoma = system: UACC-257 melanoma
UACC-62 melanoma = system: UACC-62 melanoma
UO-31 renal = system: UO-31 renal
HOP-62 NSCLC = system: HOP-62 NSCLC
SNB-75 CNS = system: SNB-75 CNS
RPMI-8226 leukemia = system: RPMI-8226 leukemia

SMILES: CC(C#N)NCc1ccc(C(C)NC(C)C#N)cc1 (stereo unspecified)
- TGI (786-0 renal): > 100 µM
- TGI (A498 renal): > 100 µM
- TGI (A549 NSCLC): > 100 µM
- TGI (ACHN renal): > 100 µM
- TGI (BT-549 breast): > 100 µM
- TGI (CAKI-1 renal): > 100 µM
- TGI (CCRF-CEM leukemia): > 100 µM
- TGI (COLO 205 colon): > 100 µM
- TGI (DU-145 prostate): > 100 µM
- TGI (EKVX NSCLC): > 100 µM
- TGI (HCC-2998 colon): > 100 µM
- TGI (HCT-116 colon): > 100 µM
- TGI (HCT-15 colon): > 100 µM
- TGI (HL-60(TB) leukemia): > 100 µM
- TGI (HOP-92 NSCLC): > 100 µM
- TGI (HS 578T breast): > 100 µM
- TGI (HT29 colon): > 100 µM
- TGI (IGROV1 ovarian): > 100 µM
- TGI (K-562 leukemia): > 100 µM
- TGI (KM12 colon): > 100 µM
- TGI (LOX IMVI melanoma): > 100 µM
- TGI (M14 melanoma): > 100 µM
- TGI (MALME-3M melanoma): > 100 µM
- TGI (MCF7 breast): > 100 µM
- TGI (MDA-MB-231 breast): > 100 µM
- TGI (MDA-MB-435): > 100 µM
- TGI (MDA-N): > 100 µM
- TGI (MOLT-4 leukemia): > 100 µM
- TGI (NCI-H226 lung): > 100 µM
- TGI (NCI-H23 lung): > 100 µM
- TGI (NCI-H460 lung): > 100 µM
- TGI (NCI-H522 lung): > 100 µM
- TGI (NCI/ADR-RES ovarian): > 100 µM
- TGI (OVCAR-3 ovarian): > 100 µM
- TGI (OVCAR-4 ovarian): > 100 µM
- TGI (OVCAR-5 ovarian): > 100 µM
- TGI (OVCAR-8 ovarian): > 100 µM
- TGI (PC-3 prostate): > 100 µM
- TGI (RXF 393 renal): > 100 µM
- TGI (SF-268 CNS): > 100 µM
- TGI (SF-295 CNS): > 100 µM
- TGI (SF-539 CNS): > 100 µM
- TGI (SK-MEL-2 melanoma): > 100 µM
- TGI (SK-MEL-28 melanoma): > 100 µM
- TGI (SK-MEL-5 melanoma): > 100 µM
- TGI (SK-OV-3 ovarian): > 100 µM
- TGI (SN12C renal): > 100 µM
- TGI (SNB-19 CNS): > 100 µM
- TGI (SW-620 colon): > 100 µM
- TGI (T-47D breast): > 100 µM
- TGI (TK-10 renal): > 100 µM
- TGI (U251 CNS): > 100 µM
- TGI (UACC-257 melanoma): > 100 µM
- TGI (UACC-62 melanoma): > 100 µM
- TGI (UO-31 renal): > 100 µM

SMILES: COC(=O)[C@]1(C)CC[C@]2(C)CC[C@]3(C)C4[C@H]5Oc6c(cc7c(c6C)CCC6[C@@]7(C)CC[C@@]7(C)C8[C@](C)(CCC[C@@]8(C)C(=O)OC)CC[C@]67C)O[C@H]5c5c(cc6c(c5C)O[C@@]5(C)C7=CC=C8[C@@](C)(CC[C@@]9(C)[C@@H]%10C[C@](C)(C(=O)OC)CC[C@]%10(C)CC[C@]89C)C7=CC(=O)[C@@]5(O)O6)[C@]4(C)CC[C@@]3(C)C2C1 (stereo partly specified)
- TGI (786-0 renal): 3.59 µM
- TGI (A498 renal): > 12.5 µM
- TGI (A549 NSCLC): > 12.5 µM
- TGI (ACHN renal): > 12.5 µM
- TGI (BT-549 breast): > 12.5 µM
- TGI (CAKI-1 renal): > 12.5 µM
- TGI (CCRF-CEM leukemia): 4.9 µM
- TGI (COLO 205 colon): > 12.5 µM
- TGI (DU-145 prostate): > 12.5 µM
- TGI (EKVX NSCLC): 10.5 µM
- TGI (HCT-116 colon): 6.63 µM
- TGI (HCT-15 colon): 11.5 µM
- TGI (HL-60(TB) leukemia): > 12.5 µM
- TGI (HOP-62 NSCLC): > 12.5 µM
- TGI (HOP-92 NSCLC): 4.5 µM
- TGI (HS 578T breast): > 12.5 µM
- TGI (HT29 colon): > 12.5 µM
- TGI (IGROV1 ovarian): 5.81 µM
- TGI (K-562 leukemia): 11.6 µM
- TGI (KM12 colon): > 12.5 µM
- TGI (LOX IMVI melanoma): 4.56 µM
- TGI (M14 melanoma): > 12.5 µM
- TGI (MALME-3M melanoma): > 12.5 µM
- TGI (MCF7 breast): 9.73 µM
- TGI (MDA-MB-231 breast): 7.08 µM
- TGI (MDA-MB-435): 12.2 µM
- TGI (MDA-N): 4.02 µM
- TGI (MOLT-4 leukemia): 4.85 µM
- TGI (NCI-H226 lung): > 12.5 µM
- TGI (NCI-H23 lung): > 12.5 µM
- TGI (NCI-H460 lung): > 12.5 µM
- TGI (NCI-H522 lung): 5.9 µM
- TGI (NCI/ADR-RES ovarian): > 12.5 µM
- TGI (OVCAR-3 ovarian): 5.91 µM
- TGI (OVCAR-4 ovarian): > 12.5 µM
- TGI (OVCAR-5 ovarian): > 12.5 µM
- TGI (OVCAR-8 ovarian): 5.95 µM
- TGI (PC-3 prostate): > 12.5 µM
- TGI (RXF 393 renal): 4.01 µM
- TGI (SF-268 CNS): > 12.5 µM
- TGI (SF-295 CNS): > 12.5 µM
- TGI (SF-539 CNS): 5.41 µM
- TGI (SK-MEL-2 melanoma): 6.14 µM
- TGI (SK-MEL-28 melanoma): > 12.5 µM
- TGI (SK-MEL-5 melanoma): > 12.5 µM
- TGI (SK-OV-3 ovarian): > 12.5 µM
- TGI (SN12C renal): 5.31 µM
- TGI (SNB-19 CNS): > 12.5 µM
- TGI (SNB-75 CNS): 10.5 µM
- TGI (SW-620 colon): 6.69 µM
- TGI (T-47D breast): 6.94 µM
- TGI (TK-10 renal): 6.07 µM
- TGI (U251 CNS): 11.4 µM
- TGI (UACC-257 melanoma): 6.52 µM
- TGI (UACC-62 melanoma): 4.61 µM
- TGI (UO-31 renal): 5.11 µM

SMILES: COC(=O)C1=C(C(=O)OC)SC2(S1)C1=C(CCC1)SC(C(=O)OC)=C2C(=O)OC
- TGI (A498 renal): 22.7 µM
- TGI (A549 NSCLC): 32.8 µM
- TGI (ACHN renal): 24.8 µM
- TGI (BT-549 breast): 31.3 µM
- TGI (CAKI-1 renal): 18.1 µM
- TGI (CCRF-CEM leukemia): 12.5 µM
- TGI (COLO 205 colon): 42 µM
- TGI (DU-145 prostate): 15.8 µM
- TGI (EKVX NSCLC): 29 µM
- TGI (HCC-2998 colon): 33 µM
- TGI (HCT-116 colon): 3.65 µM
- TGI (HCT-15 colon): 21.5 µM
- TGI (HL-60(TB) leukemia): > 100 µM
- TGI (HOP-62 NSCLC): 26.2 µM
- TGI (HOP-92 NSCLC): 22.5 µM
- TGI (HS 578T breast): 35.4 µM
- TGI (HT29 colon): 18.5 µM
- TGI (IGROV1 ovarian): 26.6 µM
- TGI (K-562 leukemia): > 100 µM
- TGI (KM12 colon): 32.1 µM
- TGI (LOX IMVI melanoma): 15.3 µM
- TGI (M14 melanoma): 35.3 µM
- TGI (MALME-3M melanoma): 36 µM
- TGI (MCF7 breast): 22.4 µM
- TGI (MDA-MB-231 breast): 33.4 µM
- TGI (MDA-MB-435): 26 µM
- TGI (MDA-N): 29.6 µM
- TGI (MOLT-4 leukemia): 16.8 µM
- TGI (NCI-H23 lung): 37 µM
- TGI (NCI-H460 lung): 20.2 µM
- TGI (NCI-H522 lung): 9.08 µM
- TGI (NCI/ADR-RES ovarian): 39 µM
- TGI (OVCAR-3 ovarian): 24.6 µM
- TGI (OVCAR-4 ovarian): 28.9 µM
- TGI (OVCAR-5 ovarian): 34.6 µM
- TGI (OVCAR-8 ovarian): 24.6 µM
- TGI (PC-3 prostate): 23.3 µM
- TGI (RPMI-8226 leukemia): > 100 µM
- TGI (RXF 393 renal): 16.7 µM
- TGI (SF-268 CNS): 34.4 µM
- TGI (SF-295 CNS): 28.9 µM
- TGI (SF-539 CNS): 4.32 µM
- TGI (SK-MEL-2 melanoma): 35.8 µM
- TGI (SK-MEL-28 melanoma): 25.3 µM
- TGI (SK-MEL-5 melanoma): 36 µM
- TGI (SK-OV-3 ovarian): 30.5 µM
- TGI (SN12C renal): 23.4 µM
- TGI (SNB-19 CNS): 36.8 µM
- TGI (SW-620 colon): 37.5 µM
- TGI (T-47D breast): 46.3 µM
- TGI (TK-10 renal): 29.1 µM
- TGI (U251 CNS): 29.2 µM
- TGI (UACC-257 melanoma): 31.8 µM
- TGI (UACC-62 melanoma): 34 µM
- TGI (UO-31 renal): 22.7 µM
